Patent publication US20040191327A1, “Method of treating and/or preventing asthma using natural compound luteolin” (Council of Scientific and Industrial Research, priority 2003, published 2004)
Several values for one entry are separate records, joined by “and”; a condition that tells them apart may be missing. Identical values can stand only once. Marks after values point to notes of the source that are not given here.

Key:
IFN-γ = IFN-γ level in BALF by ELISA; type: in vivo, mouse; conditions: mean±SEM, n=6
Procedure: (§1) After testing the compound for the preventive as well as for therapeutic effects in intact conscious mice, mice were sacrificed for collecting the blood and bronchoalveolar lavage (BAL) fluid to measure the levels of IgE, cytokines IL-4, IL-5 and IFN-γ. Ovalbumin specific IgE levels in the sera and the levels of IL-4, IL-5 and IFN-γ in the BAL fluid were measured by enzyme linked ImmunoSorbent assay (ELISA) kits.
(§2) Experiments were performed with six groups of mice (n=6) as described in FIG. 3 legend and the levels of IFN-γ, IL-4 and IL-5 were measured in the BALF. The values are a mean±SEM of six mice in each group. Mann Whitney U test was used to determine the significant differences between the sensitized- and Luteolin treated groups. * p <0.05, ** p<0.01. ‘a’ denotes treatment during sensitization; ‘b’ denotes treatment after sensitization.
(§3) Mice were immunized/sensitized with or without (sham-sensitized) 0.2 ml of 10 μg ovalbumin (Sigma Chemicals Co. St Louis, Mo., USA) and 2 mg aluminum hydroxide intraperitoneally on days 0,7 and 14 using a modified protocol previously described by Sakai et al (FIG. 2). Five days after the final i.p injection, the mice were subjected to aerosolized OVA (5%) or phosphate buffered saline (PBS) (for sham-sensitized group) inhalation for 20 minutes daily beginning from day 19 to day 23 (FIG. 2). Mice were placed in a plexiglas chamber (20×20×20 cm dimensions) and exposed to an aerosol generated from a nebulizer (de Vilbiss, USA) with airflow of 41/min.
(§4) To study the preventive effect, Luteolin (dissolved in 50% hydro-alcohol) (Sigma Chemicals Co. St Louis, Mo., USA) (0.1, 1.0, and 10.0 mg/kg body weight, 20 □| volume) or vehicle (i.e., 50% hydro-alcohol) was administered orally to each group of mice daily, starting from the first day of sensitization (FIG. 2A). To study the curative effect, mice were first sensitized as described before (Example 1) followed by oral Luteolin (1.0 mg/kg body weight) treatment daily from day 26 to 32 (FIG. 2B).
(§5) To investigate the levels of IL-4 and IFN-[…] in the BALF, we measured the cytokine levels by ELISA as per manufacturer's protocol, and compared between the different groups. […] In the Luteolin-treated group, there was an increase in the ratio of IFN-γ/IL-4 (25.8±2.7, 15.5±1.3, 13.2±2.5 following doses of 0.1, 1.0 and 10.0 mg/kg Luteolin, respectively as compared to 0.48±0.1 in sensitized, vehicle treated mice) (p<0.01) (Table 1). […] This increase in the IFN-γ/IL-4 ratio was due to the increase in the IFN-γ levels. We also measured the concentration of IL-5 in the BALF by ELISA in the different groups (Table 1). […]

IL-5 = IL-5 level in BALF by ELISA; type: in vivo, mouse; conditions: mean±SEM
Procedure: as §1, §2, §3, §4, §5

OVA-specific IgE = OVA-specific IgE levels in serum by ELISA; type: in vivo, mouse
Procedure: as §1, §3, §4
OVA-specific IgE levels in the serum were measured by enzyme linked ImmunoSorbent assay (ELISA), To investigate the effect of Luteolin on serum IgE levels, we compared the levels of the OVA-specific IgE in serum of mice treated with vehicle or with Luteolin (0.1, 1.0 and 10.0 mg/kg) during sensitization and in sham-sensitized mice.

OVA-sensitized mice [1] = assay: Airway reactivity to methacholine (MCh PD35) in mouse model of asthma; type: in vivo
Procedure: Protocol A: The mice were given three i.p. Injections of 10 μg ovalbumin adsorbed on 2 mg alum on 0, 7 and 14 days and then subjected to OVA aerosol inhalation for five consecutive days from 19th to 23rd day of the experiment. On 24th day SGaw measurements were performed after OVA challenge in the plethysmograph and airway reactivity to methacholine was measured after 24 hours. In case of curative study (Protocol B), sensitized mice were fed with 1 mg/kg body weight of Luteolin for one week (days 26-32) and the effects on SGaw and airway reactivity were evaluated.
as §3, §4
Airway reactivity to methacholine was determined by measuring the concentration of inhaled methacholine that produced 35% fall in SGaw (MCh PD35) in intact mouse sitting in the body plethysmograph. Aerosol of different concentrations of methacholine (3.1, 6.25, 12.5, 50, 100 mg/ml) were given for 60 seconds. MCh PD35 values were determined in sham-sensitized, sensitized and Luteolin treated mice during and after sensitization. […] Treatment with Luteolin (0.1, 1.0 and 10.0 mg/kg during sensitization) markedly attenuated the development of airway hyperreactivity to methacholine. MCh PD35 values increased following Luteolin treatment to 72.1±1.9, 42.4±4.2 and 10.9±4.8 mg/ml, respectively (p<0.01).

OVA-sensitized mice [2] = assay: OVA-induced airway constriction (fall of specific airway conductance, SGaw) in mouse model of asthma; type: in vivo
Procedure: Protocol A: The mice were given three i.p. Injections of 10 μg ovalbumin adsorbed on 2 mg alum on 0, 7 and 14 days and then subjected to OVA aerosol inhalation for five consecutive days from 19th to 23rd day of the experiment. On 24th day SGaw measurements were performed after OVA challenge in the plethysmograph and airway reactivity to methacholine was measured after 24 hours. In case of curative study (Protocol B), sensitized mice were fed with 1 mg/kg body weight of Luteolin for one week (days 26-32) and the effects on SGaw and airway reactivity were evaluated. Mice were immunized/sensitized with or without (sham-sensitized) 0.2 ml of 10 μg ovalbumin (Sigma Chemicals Co. St Louis, Mo., USA) and 2 mg aluminum hydroxide intraperitoneally on days 0,7 and 14 using a modified protocol previously described by Sakai et al (FIG. 2). Five days after the final i.p injection, the mice were subjected to aerosolized OVA (5%) or phosphate buffered saline (PBS) (for sham-sensitized group) inhalation for 20 minutes daily beginning from day 19 to day 23 (FIG. 2). Mice were placed in a plexiglas chamber (20×20×20 cm dimensions) and exposed to an aerosol generated from a nebulizer (de Vilbiss, USA) with airflow of 41/min. To study the preventive effect, Luteolin (dissolved in 50% hydro-alcohol) (Sigma Chemicals Co. St Louis, Mo., USA) (0.1, 1.0, and 10.0 mg/kg body weight, 20 □| volume) or vehicle (i.e., 50% hydro-alcohol) was administered orally to each group of mice daily, starting from the first day of sensitization (FIG. 2A). […] Airway calibre was measured in the term of specific airway conductance (SGaw) using a dual-chamber whole body plethysmograph similar to the method for guinea pigs (Agrawal, 1981) with some modifications. […] The value of SGaw was calculated as described by Agrawal (1981). Airway constriction of mice was determined in terms of fall of SGaw due to OVA aerosol challenge. SGaw was measured as described in Example 3. […]

OVA-sensitized mice [3] = assay: Mouse model of asthma, effective oral dose; type: in vivo
Procedure: In this context, Luteolin was tested on mouse model of asthma. Mice were sensitized with intraperitoneal and aerosol inhalation of OVA to develop the characteristic features of asthma such as allergen induced early airway response (EAR) and late airway response (LAR). These asthmatic features were characterized by measuring airway calibre in the term of specific airway conductance (SGaw) by a non-invasive technique, dual-chamber whole body plethysmography. After developing the characteristic features (EAR and LAR) in mouse, the compound, Luteolin was given orally during whole sensitization period to test the preventive effect on the development of asthmatic features. To examine the therapeutic effect of Luteolin on the asthmatic features, it was fed for one week to mice after sensitization and confirming their asthmatic features.
as §4

IL-4 = IL-4 level in BALF by ELISA; type: in vivo, mouse; conditions: mean±SEM, n=6
Procedure: as §1, §2, §3, §4, §5

[4] = 10.0 mg/kg during sensitization
[5] = 1.0 mg/kg oral during sensitization
[6] = 10.0 mg/kg oral during sensitization
[7] = 1.0 mg/kg oral for one week after sensitization

SMILES: O=c1cc(-c2ccc(O)c(O)c2)oc2cc(O)cc(O)c12 [Luteolin]
- IFN-γ (IFN-γ; 0.1 mg/kg during sensitization): 3533 ± 427** pg/ml
- IFN-γ (IFN-γ; 1.0 mg/kg after sensitization): 2067 ± 233.3** pg/ml
- IFN-γ (IFN-γ; 1.0 mg/kg during sensitization): 2652 ± 114.3** pg/ml
- IFN-γ (IFN-γ; [4]): 1247 ± 412.5** pg/ml
- IL-5 (IL-5; 0.1 mg/kg during sensitization, n=6, 0.1 mg/kg): 73.3±13.4 pg/ml and 73 ± 13.4* pg/ml
- IL-5 (IL-5; 1.0 mg/kg after sensitization (one week), n=6, 1 mg/kg): 43.7±2.3 pg/ml and 44 ± 2.3* pg/ml
- IL-5 (IL-5; 1.0 mg/kg during sensitization, n=6, 1 mg/kg): 43.3±3.5 pg/ml and 43 ± 3.5* pg/ml
- IL-5 (IL-5; 10.0 mg/kg during sensitization, n=6): 235 ± 66.4 pg/mL
- OVA-specific serum IgE level (OVA-specific IgE; 0.1 mg/kg oral during sensitization, sensitized vehicle 3.3±0.4): 0.74±0.4
- OVA-specific serum IgE level (OVA-specific IgE; [5]): 0.93±0.03
- OVA-specific serum IgE level (OVA-specific IgE; 1.0 mg/kg oral for a week after sensitization): 2.07±1
- OVA-specific serum IgE level (OVA-specific IgE; [6]): 0.97±0.07
- MCh PD35 (OVA-sensitized mice [1]; 0.1 mg/kg oral during sensitization, sensitized 1.3±0.5, normal 97±1.0): 72.1 ± 1.9 mg/mL
- MCh PD35 (OVA-sensitized mice [1]; [5]): 42.4 ± 4.2 mg/mL
- MCh PD35 (OVA-sensitized mice [1]; [7]): increased significantly
- MCh PD35 (OVA-sensitized mice [1]; [6]): 10.9 ± 4.8 mg/mL
- decrease in SGaw after OVA challenge (OVA-sensitized mice [2]; 0.1 mg/kg oral daily during sensitization, sensitized vehicle mice 43% fall): 7%
- OVA-induced decrease in SGaw, curative effect (OVA-sensitized mice [2]; [7]): reverse OVA-induced decrease in SGaw
- reduction of OVA-induced decrease in SGaw at higher doses (OVA-sensitized mice [2]; 1.0 and 10.0 mg/kg oral daily during sensitization, versus 0.1 mg/kg): did not show any greater reduction
- effective dose (OVA-sensitized mice [3]): 1 mg/kg body weight
- IL-4 (IL-4; 0.1 mg/kg during sensitization): 136 ± 4.0 pg/mL
- IL-4 (IL-4; 1.0 mg/kg after sensitization): 130 ± 5.0 pg/mL
- IL-4 (IL-4; 1.0 mg/kg during sensitization): 169 ± 13.9 pg/mL
- IL-4 (IL-4; [4]): 128 ± 8.8 pg/mL
